Test results taken from PubChem BioAssay (NCI).
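Assay format: 96-well plates, 48-hour exposure. Definition used: TGI = concentration required for complete inhibition of growth.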

What was measured:
Test in all cases: growth of human tumour cells (NCI), 48 h
[1] = tested on: DMS 273 small cell lung
[2] = tested on: M19-MEL melanoma
[3] = tested on: LXFL 529 NSCLC
[4] = tested on: DLD-1 colon
[5] = tested on: DMS 114 small cell lung
[6] = tested on: UO-31 renal
[7] = tested on: XF 498 CNS
[8] = tested on: KM20L2 colon
[9] = tested on: HOP-18 NSCLC
[10] = tested on: HS 578T breast
[11] = tested on: SNB-78 CNS
[12] = tested on: RXF-631 renal

| Compound | TGI [6] | TGI [10] | other results |
| --- | --- | --- | --- |
| COc1cc2c(oc(=O)c3c4oc([Si](C)(C)C)cc4cc(OC)c23)c2cccc(O)c12 | > 100 µM | – | TGI [1]: > 100 µM; TGI [2]: > 100 µM; TGI [3]: > 100 µM; TGI [4]: > 100 µM; TGI [5]: > 100 µM; TGI [7]: > 100 µM; TGI [8]: > 100 µM; TGI [9]: > 100 µM |
| COCN1C(=O)[C@@H]2C[C@@H](OC/C=C/CBr)CN2C(=O)c2ccccc21 | 40.5 µM | > 100 µM | – |
| COc1ccc(C2Oc3cc(OC)c(O)cc3[C@@H]2C)cc1 (stereo not given in full) | 79.3 µM | – | TGI [1]: > 100 µM; TGI [11]: > 100 µM; TGI [3]: 32.1 µM; TGI [4]: 44.4 µM; TGI [5]: 40.3 µM; TGI [7]: 35.6 µM; TGI [8]: > 100 µM; TGI [9]: > 100 µM |
| Cc1[nH]c(=O)nc2c1C(=O)N(C(C)C)C(NC(C)C)S2 (stereo not given) | > 100 µM | – | – |
| COc1cc(NS(C)(=O)=O)ccc1N1Cc2cnc3ccc4[nH]ccc1c4c23 | > 100 µM | > 100 µM | – |
| N#Cc1ccc(/C=C2\Cc3ccccc3C2=O)cc1 | > 100 µM | > 100 µM | – |
| COC[C@@H](N=Cc1ccc(OC)cc1)C(C)C | > 100 µM | > 100 µM | – |
| O=S(=O)(CC#CCS(=O)(=O)c1ccccc1)c1ccccc1 | 2.65 µM | > 36.5 µM | – |
| C[N+](C)([O-])Cc1cccc(NC(=O)c2ccc(C(=O)Nc3cccc(C[N+](C)(C)[O-])c3)cc2)c1 | > 100 µM | – | – |
| C[N+]12C=CC=C1C(N1CCCC1)c1sc(-c3ccc(Cl)cc3)cc12 (stereo not given) | > 100 µM | 50.9 µM | – |
| CCOC(=O)C1(C/C=C\CBr)CCCCCCC1=O (stereo not given) | > 100 µM | > 100 µM | – |
| CC(C)(C)OC(=O)NCCNC(=O)OCc1ccccc1 | > 100 µM | > 100 µM | – |
| Cc1ccc(-n2cc(-c3ccc(Cl)cc3)c3c(NNC(=S)NCc4ccccc4)ncnc32)cc1 | 24.2 µM | > 100 µM | – |
| N#Cc1c(C#N)c(-c2ccco2)n(/N=C/c2ccco2)c1N | > 100 µM | 71.2 µM | – |
| O=C1c2ccccc2C(=O)c2c1c1cc(O)ccc1n2Cc1ccc(Cl)cc1Cl | 37.9 µM | > 100 µM | – |
| CCN(CC)CC(C(=O)Nc1c(C)cccc1C)/C(C)=N/NC(N)=S (stereo not given) | > 100 µM | – | TGI [1]: > 100 µM; TGI [2]: > 100 µM; TGI [12]: > 100 µM; TGI [11]: > 100 µM; TGI [3]: > 100 µM; TGI [4]: > 100 µM; TGI [5]: > 100 µM; TGI [7]: > 100 µM; TGI [8]: > 100 µM |
| COc1cccc2c(NNc3ccc(Cl)cc3)c3ccc([N+](=O)[O-])cc3nc12 | 37.9 µM | 50.6 µM | – |
| CC(C)(C)OC(=O)N(CCCN)CCCCN(CCCN)C(=O)OC(C)(C)C | > 100 µM | > 100 µM | – |
| CC1=C2CC3=C(C)C(=O)O[C@H]3C[C@@H](C)[C@@H]2CC1 | > 100 µM | > 100 µM | – |
| Cc1ccc(-c2cn3c(nc4ccccc43)c(C)n2)cc1 | > 30.1 µM | > 100 µM | – |
